Results from paper PMC12169104, “Towards the development of supramolecular self-associating amphiphiles as antibiofilm agents against Pseudomonas aeruginosa and Candida albicans biofilms” (Journal of Materials Chemistry. B, 2025).

Key:
[1] = Metabolic stability in liver microsomes; type: in vitro ADME, rat
Procedure: (§1) Section S5: In vitro and in vivo studies
(§2) These studies were performed by Contract Research Organisation (CRO) Pharmaron. The methodology provided within the ESI is published within the express permission of this organisation.
(§3) The percentage of a compound recovered during the analysis process should be 100 %; any deviation from this value indicates experimental limitations such as unintended potential non-specific binding events to experimental equipment, solubility issues, etc.
In vitro Absorption, Distribution and Metabolism studies methods: […]
The ionisation
Kinetic Solubility Determination in PBS pH 7.4:
The stock solutions of test and control compounds were prepared in DMSO at 10 mM. From this a 300 µM solution was prepared in duplicate in 100 mM Phosphate Buffered Saline (PBS, pH 7.4 ± 0.1). These solutions were then shaken at 1100rpm for 2 hours at 25°C. […]
Metabolic Stability in Rat, Mouse and Human Liver Microsomes :
The metabolic stability of compounds at a concentration of 1 µM, in rat, mouse and human liver microsomes (BD Gentest, Franklin Lakes NJ) was measured following incubation with hepatic microsomes (0.5 mg of protein / mL) in the presence and absence of cofa ctor (NADPH) at 37 °C.
Aliquots of each incubation were removed at 0.5, 5, 15, 30 and 60 minutes. The reaction was stopped by the addition of cold acetonitrile containing analytical internal standard (IS). […]

[2] = Protein binding in human plasma by equilibrium dialysis; type: in vitro ADME
Procedure: as §1, §2, §3
In vitro Absorption, Distribution and Metabolism studies methods:
Protein Binding measurements in human plasma by using equilibrium dialysis:
The fraction unbound in human plasma (P-KB, Ltd People’s hospital of Shandong) was measured using 96-well Equilibrium Dialysis Plate (HTDialysis LLC, Gales Ferry, CT). Human plasma containing 5 µM test compound was dialysed against dialysis buffer (PBS, pH 7.4) with initial samples taken to allow for assessment of plasma stability and recovery before the plate was incubated for 6 hours at 37°C at 5%
CO2. Samples were removed at 6 hours, and all samples were matrix matched and quenched with acetonitrile containing internal standard. Samples were centrifuged at 3,220g for 30 minutes to precipitate protein and enable sampling of supernatant prior to appropr iate dilution for liquid chromatography mass -spectrometry (LC -MS/MS) analysis.
Samples were analysed using a Shimadzu Nexera LC Binary Gradient LC -30AD (Shimadzu Inc, Kyoto), coupled to a Sciex 6500+ (AB Inc., Illinois). Separation was achieved using a XSelect HSS T3 (2.5µm, 2.1 x 50 mm) (Waters Ltd., Wilmslow) column at a temperature of 40°C and a binary mobile phase gradient at a flow rate of 0.8 mL/min. Initial LC conditions comprised of 95% solvent A (0.1% formic acid in water), 5% solvent B (0.1% formic acid in acetonitrile); this was ramped to 98% B at 0.5 min, held for 0.4 min and then immediately returned to initial conditions. Sample analysis was by electrospray ionisation in combined with multiple reaction monitoring in positive ionisation mode. The ionisation […]

[3] = In vivo pharmacokinetic study, intravenous; design: species or system female CD-1 mice; conditions: IV 1 mg/kg
Procedure: In vitro Absorption, Distribution and Metabolism results […]
In vivo Pharmacokinetic study methods
SSA 5 was dosed at 1 mg/kg to female CD -1 mice (n=3) via an intravenous tail vein bolus administration, dose formulation was a solution in 2% DMSO/98% Water. Blood was sampled from the dorsal metatarsal vein at each time point (n=8) and added to tubes containing anticoagulant K2-EDTA. Blood samples were extracted by protein precipitation. Blood concentrations were calculated through UPLC-MS/MS techniques, with internal standard. The lower limit of quantitation was 6.4 nM. PK parameters were calculated using Phoenix WinNonlin version 8.3.

[4] = mouse, whole blood, blood, female CD-1 mice

half-life at 1 µM ([1]; liver microsomes, rat microsomes, 1 µM, read-out: In vitro T1/2): > 185 min
Hepatic Extraction Ratio (ER) ([1]; rat): < 0.21
% Stability ([2]; human plasma, 6 hours): 99.5%
recovery at 6 h, 5 µM ([2]; human, plasma, pH 7.4, SSA recovered from the assay after 6 hours): 102%
fraction unbound at 6 h, 5 µM ([2]; pH 7.4, human plasma proteins, 5 µM, 6 hours incubation at 37 °C, read-out: % Bound (converted)): 0.076
Cl Blood as % LBF ([3]; female CD-1 mice): > 100 % LBF
concentration at 2 h ([3]; female, CD-1, mouse, whole blood, 2 hours following dosing, read-out: blood level at last detected time): 8.1 nM
clearance ([3]; mouse, whole blood, female CD-1 mice, read-out: Cl Blood): 162 ± 28 mL/min/kg
Vd ([3]; mouse, whole blood, female CD-1 mice, read-out: Vss): 3.1 ± 1.7 L/kg
Cmax ([3]; mouse, whole blood, blood, DMSO:H2O 2:98, female CD-1 mice): 1200 ± 208 nM
AUC(0-inf) [3, 4]: 0.335 ± 0.06 µM·h
AUC(0-t) [3, 4]: 0.327 ± 0.057 µM·h
Tmax [3, 4]: 4.98 min
half-life ([3]; mouse, whole blood, terminal half-life, female CD-1 mice): 43.8 ± 36.6 min
Structure (SMILES): O=C(O)CNc1c(Nc2ccc(C(F)(F)F)cc2)c(=O)c1=O [SSA 5]
